Where two headings read alike, the source gives them in different places.
Legend:
Type in all cases: cell-based, human
[1] = test system: HTT mRNA; assay: Splicing RT-qPCR assay, HTT canonical (CJ) and alternative (AJ) junction mRNA; conditions: Homo sapiens, A673 or K562 cells, 24 hours compound treatment; for IC50: 24 h, read-out: HTT CJ (IC50, decrease in canonical junction mRNA); for AC50: read-out: HTT AJ (AC50, increase in alternative junction mRNA)
In short: (§1)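 A673 or K562 cells were treated 24 h at 37 °C with an 11-point 3-fold compound dilution series (top 10 uM, DMSO ≤0.25%). Lysates went to one-step RT-qPCR measuring canonical (CJ) and alternative-exon (AJ) junction transcripts, normalized to GAPDH, GUSB or PPIA.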

[2] = test system: SMN2 mRNA; assay: Splicing RT-qPCR gene panel, SMN2 canonical junction (CJ) mRNA; conditions: Homo sapiens, Tables 4A/4B, read-out: SMN2 (IC50, decrease in CJ mRNA, gene panel)
In short: (§2)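 Canonical-junction mRNA levels were quantified by RT-qPCR in lysates, using ΔΔCt against a housekeeping gene (GAPDH, GUSB or PPIA) and DMSO wells, expressed as percentage response. Cells (A673 or K562) had been exposed for 24 h at 37° C. to 11 three-fold compound concentrations up to 10 uM, DMSO ≤0.25%.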

[3] = test system: HTT mRNA; assay: Splicing RT-qPCR gene panel, HTT canonical junction (CJ) mRNA; conditions: Homo sapiens, Tables 4A/4B, read-out: HTT (IC50, decrease in CJ mRNA, gene panel)
In short: as §2

[4] = test system: Target C mRNA; assay: Splicing RT-qPCR gene panel, Target C canonical junction (CJ) mRNA; conditions: Homo sapiens, Tables 4A/4B, read-out: Target C (IC50, decrease in CJ mRNA, gene panel)
In short: as §2

[5] = test system: MYB mRNA; assay: Splicing RT-qPCR assay, MYB canonical (CJ) and alternative (AJ) junction mRNA; conditions: Homo sapiens; for AC50: read-out: MYB AJ (AC50, increase in alternative junction mRNA)
In short: as §1

[6] = 24 h, A673 or K562 cells, 24 hours compound treatment, RT-qPCR
[7] = 24 h, A673 or K562 cells, 24 hours compound treatment, RT-qPCR, read-out: MYB CJ (IC50, decrease in canonical junction mRNA)
[8] = Tables 4A/4B, canonical junction qPCR panel, read-out: MYB (IC50, decrease in CJ mRNA, gene panel)

SMILES | IC50 [1] | AC50 [1] | IC50 [2] | IC50 [3] | IC50 [4] | AC50 [5, 6] | IC50 [5, 7] | IC50 [5, 8]
CCn1cc2c(N3CC[C@@H](N(C)C)C3)ccc(C(=O)Nc3cc(F)c4nc(C)cn4c3)c2n1 [Compound 407, (R)-4-(3-(dimethylamino)pyrrolidin-1-yl)-2-ethyl-N-(8-fluoro-2-methylimidazo[1,2-a]pyridin-6-yl)-2H-indazole-7-carboxamide] | > 10 µM | > 10 µM | < 0.1 µM | > 10 µM | > 10 µM | 0.1 to 1 µM | 0.1 to 1 µM | 0.1 to 1 µM
CCn1cc2c(N3CC[C@H](N(C)C)C3)ccc(C(=O)Nc3cc(F)c4nc(C)cn4c3)c2n1 [Compound 408, (S)-4-(3-(dimethylamino)pyrrolidin-1-yl)-2-ethyl-N-(8-fluoro-2-methylimidazo[1,2-a]pyridin-6-yl)-2H-indazole-7-carboxamide] | > 10 µM | > 10 µM | < 0.1 µM | > 10 µM | > 10 µM | 0.1 to 1 µM | 0.1 to 1 µM | 0.1 to 1 µM
CCn1cc2c(N3CC[C@@H](NC4CC4)C3)ccc(C(=O)Nc3cc(F)c4nc(C)cn4c3)c2n1 [Compound 409, (R)-4-(3-(cyclopropylamino)pyrrolidin-1-yl)-2-ethyl-N-(8-fluoro-2-methylimidazo[1,2-a]pyridin-6-yl)-2H-indazole-7-carboxamide] | > 10 µM | > 10 µM | < 0.1 µM | > 10 µM | > 10 µM | < 0.1 µM | 0.1 to 1 µM | 0.1 to 1 µM
CCn1cc2c(N3CC[C@H](NC4CC4)C3)ccc(C(=O)Nc3cc(F)c4nc(C)cn4c3)c2n1 [Compound 410, (S)-4-(3-(cyclopropylamino)pyrrolidin-1-yl)-2-ethyl-N-(8-fluoro-2-methylimidazo[1,2-a]pyridin-6-yl)-2H-indazole-7-carboxamide] | > 10 µM | > 10 µM | < 0.1 µM | > 10 µM | > 10 µM | 1 to 10 µM | 0.1 to 1 µM | 0.1 to 1 µM
Cc1cn2cc(NC(=O)c3ccc(N4CCNCC4)c4cn(CC#N)nc34)cc(F)c2n1 [Compound 413, 2-(cyanomethyl)-N-{8-fluoro-2-methylimidazo[1,2-a]pyridin-6-yl}-4-(piperazin-1-yl) indazole-7-carboxamide] | 1 to 10 µM | 1 to 10 µM | < 0.1 µM | 1 to 10 µM | > 10 µM | < 0.1 µM | < 0.1 µM | < 0.1 µM
Cc1cn2cc(NC(=O)c3ccc(N4CCNCC4)c4cn(CC56CC(O)(C5)C6)nc34)cc(F)c2n1 [Compound 414, N-{8-fluoro-2-methylimidazo[1,2-a]pyridin-6-yl}-2-({3-hydroxybicyclo[1.1.1]pentan-1-yl}methyl)-4-(piperazin-1-yl) indazole-7-carboxamide 2,2,2-trifluoroacetate] | > 10 µM | > 10 µM | 1 to 10 µM | > 10 µM | > 10 µM | 1 to 10 µM | 1 to 10 µM | 1 to 10 µM
CCn1cc2c(N3CCN4C(=O)OCC4C3)ccc(C(=O)Nc3cc(F)c4nc(C)cn4c3)c2n1 (stereo not drawn) [Compound 415, 2-ethyl-N-{8-fluoro-2-methylimidazo[1,2-a]pyridin-6-yl}-4-{3-oxo-tetrahydro-1H-[1,3]oxazolo[3,4-a]pyrazin-7-yl}indazole-7-carboxamide] | 0.1 to 1 µM | 0.1 to 1 µM | 0.1 to 1 µM | 0.1 to 1 µM | 0.1 to 1 µM | 0.1 to 1 µM | 0.1 to 1 µM | 0.1 to 1 µM
C=C(C)n1ncc2c(N3CCNCC3)ccc(C(=O)Nc3cc(F)c4nc(C)cn4c3)c21 [Compound 416, N-(8-fluoro-2-methylimidazo[1,2-a]pyridin-6-yl)-4-(piperazin-1-yl)-1-(prop-1-en-2-yl)-1H-indazole-7-carboxamide] | > 10 µM | > 10 µM | 1 to 10 µM | > 10 µM | > 10 µM | > 10 µM | > 10 µM | > 10 µM
CNC1CCN(c2ccc(C(=O)Nc3cn4cc(C)nc4c(OC)n3)c3nn(C)cc23)C1 (stereo not drawn) [Compound 417] | 1 to 10 µM | > 10 µM | < 0.1 µM | > 10 µM | > 10 µM | < 0.1 µM | < 0.1 µM | < 0.1 µM
